The results in this text go back to patent publication US20150368297A1, “Novel Peptide Compound for Inhibiting Restenosis and Promoting Re-Endothelialization and Method for Preparing the Same” (Chonnam National University Hospital, priority 2014, published 2015).

The subject of this assay is vascular smooth muscle cell (SMC). As to the kind of experiment: Effect on proliferation of vascular smooth muscle cell (SMC), XTT assay. It counts as cell-based. The following applies: 1 uM compound; measured at 1, 4 and 7 days; versus non-treated control; FIG. 1. On the procedure: As cells used in a cell culture, the vascular smooth muscle cell (SMC) which is a smooth muscle cell, and the human umbilical vein endothelial cell (HUVEC) which is the cell for promoting vascular re-endothelialization were purchased from Korea Cell Line Bank, respectively. The cell culture was performed by culturing the vascular smooth muscle cell (SMC) and the human umbilical vein endothelial cell (HUVEC) in Dulbecoco's modified eagle medium (DMEM) with 10% fetal bovine serum (FBS) under conditions of 37° C. and 5% CO2. […]
5×10^4 of SMC cells cultured according to Example 2 were cultured in the 24-well cell culture plate and then treated with 1 uM of the peptide compound prepared by Example 2 (hereinafter, referred to as ‘EVR-P’). […] After the reaction, 200 ul of the culture medium was transferred from each well to a 96 well cell culture dish, and degree of color change was measured from absorbance at a 450 nm wavelength by a spectroscopy.
5×10^4 of SMC cells cultured according to Example 2 were cultured in the 24-well cell culture plate and then treated with 1 uM of the known Everolimus (EVR)(LC Laboratories). […] After the reaction, 200 ul of the culture medium was transferred from each well to the 96 well cell culture dish, and degree of color change was measured from absorbance at a 450 nm wavelength by a spectroscopy.
On the technique in general: Tetrazolium dyes change colour on reduction, which living cells bring about.

On to `CO[C@H]1C[C@@H]2CC[C@@H](C)[C@@](O)(O2)C(=O)C(=O)N2CCCC[C@H]2C(=O)O[C@H]([C@H](C)C[C@@H]2CC[C@@H](OCCO)[C@H](OC)C2)CC(=O)[C@H](C)/C=C(\C)[C@@H](O)[C@@H](OC)C(=O)[C@H](C)C[C@H](C)/C=C/C=C/C=C/1C` [EVR, Everolimus], for which the “SMC cell proliferation (XTT, absorbance at 450 nm)” value was “cell proliferation was inhibited”.
